The supplement of paper PMC11061612

Tests used:
Assay in all cases: Bliss excess, mean over the matrix (fraction); higher = more synergy
[1] = tested on: HSC-2 (Oral Cavity Carcinoma)
Method in brief: (§1)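 After 24 hours at 37°C and 5% CO2 in 1536-well plates, cells in DMEM/F12 or RPMI plus 10% FBS received two-drug dose matrices for 72 hours. Viability came from CellTiter-Glo 2.0 luminescence and was scaled as inhibition, anchored at 0 by vehicle wells and at 1 by blank wells. Combination Emax is taken as the second-highest inhibition in the matrix, and Bliss excess as the observed combination effect less EA + EB − EA·EB, with EA and EB the single-agent effects.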

[2] = tested on: LOU-NH91 (Squamous Cell Lung Carcinoma)
Method in brief: as §1

[3] = tested on: OVISE (Ovarian Carcinoma)
Method in brief: as §1

[4] = tested on: NCI-H2405 (Lung Adenocarcinoma)
Method in brief: as §1

[5] = tested on: OCUB-M (Breast Carcinoma)
Method in brief: as §1

[6] = tested on: DG-75 (Burkitt's Lymphoma)
Method in brief: as §1

[7] = tested on: TGBC11TKB (Gastric Carcinoma)
Method in brief: as §1

[8] = tested on: SCC-9 (Oral Cavity Carcinoma)
Method in brief: as §1

[9] = tested on: HuP-T3 (Pancreatic Carcinoma)
Method in brief: as §1

[10] = tested on: JHH-7 (Hepatocellular Carcinoma)
Method in brief: as §1

[11] = tested on: EMC-BAC-2 (Non-Small Cell Lung Carcinoma)
Method in brief: as §1

[12] = tested on: KLE (Endometrial Carcinoma)
Method in brief: as §1

NH-12 (Neuroblastoma) = tested on: NH-12 (Neuroblastoma)
Method in brief: as §1

[13] = tested on: NCI-H2347 (Lung Adenocarcinoma)
Method in brief: as §1

NB7 (Neuroblastoma) = tested on: NB7 (Neuroblastoma)
Method in brief: as §1

BT-20 (Breast Carcinoma) = tested on: BT-20 (Breast Carcinoma)
Method in brief: as §1

[14] = tested on: NCI-H513 (Other Solid Carcinomas)
Method in brief: as §1

[15] = tested on: PF-382 (T-Lymphoblastic Leukemia)
Method in brief: as §1

[16] = tested on: OCUM-1 (Gastric Carcinoma)
Method in brief: as §1

RPMI-7951 (Melanoma) = tested on: RPMI-7951 (Melanoma)
Method in brief: as §1

SMILES	Bliss excess [1]	Bliss excess [2]	Bliss excess [3]	Bliss excess [4]	Bliss excess [5]	Bliss excess [6]	Bliss excess [7]	Bliss excess [8]	Bliss excess [9]	Bliss excess [10]	Bliss excess [11]	Bliss excess [12]	Bliss excess (NH-12 (Neuroblastoma))	Bliss excess [13]	Bliss excess (NB7 (Neuroblastoma))	Bliss excess (BT-20 (Breast Carcinoma))	Bliss excess [14]	Bliss excess [15]	Bliss excess [16]	Bliss excess (RPMI-7951 (Melanoma))
CC(=O)c1c(C)c2cnc(Nc3ccc(N4CCNCC4)cn3)nc2n(C2CCCC2)c1=O [Palbociclib] + CC1(C)CCC(CN2CCN(c3ccc(C(=O)NS(=O)(=O)c4ccc(NCC5CCOCC5)c([N+](=O)[O-])c4)c(Oc4cnc5[nH]ccc5c4)c3)CC2)=C(c2ccc(Cl)cc2)C1 [Venetoclax] (first compound max 10 µM, 7x7, partner max 1 µM)	-0.0128	-0.0489	-0.0422	-0.0521	-0.0276	-0.0084	-0.0901	-0.051	-0.021	-0.0474	0.0004	-0.0355	0.0627	-0.0375	-0.102	-0.0352	-0.0574	0.0031	-0.0515	0.0005
COc1cc2ncnc(Nc3ccc(F)c(Cl)c3)c2cc1OCCCN1CCOCC1 [Gefitinib] + CC(C)n1c(=O)n(C)c2cnc3cc(F)c(-c4ccc(OCCCN5CCCCC5)nc4)cc3c21 [AZD1390] (first compound max 10 µM, 7x7, partner max 0.3 µM)	-0.0442	-0.0195	-0.0739	-0.0597	-0.0537	-0.0333	-0.0382	-0.0309	-0.0595	-0.0451	-0.0706	-0.0548	-0.0643	-0.0771	-0.0402	-0.047	-0.0828	-0.0668	-0.101	-0.0498
CC1(C)CCC(CN2CCN(c3ccc(C(=O)NS(=O)(=O)c4ccc(NCC5CCOCC5)c([N+](=O)[O-])c4)c(Oc4cnc5[nH]ccc5c4)c3)CC2)=C(c2ccc(Cl)cc2)C1 [Venetoclax] + C=CCn1c(=O)c2cnc(Nc3ccc(N4CCN(C)CC4)cc3)nc2n1-c1cccc(C(C)(C)O)n1 [AZD1775] (first compound max 1 µM, partner max 1 µM)	-0.0096	-0.0815	-0.0676	-0.0756	0.0062	-0.0575	-0.0171	-0.0451	-0.112	0.0071	-0.0562	-0.0043	0.0148	-0.0762	0.0082	-0.0076	-0.0608	-0.0639	0.0513	-0.0559
COc1cc2c(cc1OCCCCCOc1cc3c(cc1OC)C(=O)N1C=C(C)C[C@H]1C=N3)N=C[C@@H]1CC(C)=CN1C2=O [SG3199] + O=C(c1cc(Cc2n[nH]c(=O)c3ccccc23)ccc1F)N1CCN(C(=O)C2CC2)CC1 [Olaparib] (first compound max 0.001 µM, 7x7, partner max 10 µM)	-0.0751	-0.0224	-0.0431	-0.043	-0.0502	0.0064	-0.0038	-0.0352	-0.0442	-0.0368	-0.0467	0.0057	0.0343	-0.0661	-0.0474	-0.0366	-0.0325	0.0069	-0.0653	0.0032
CC(=O)Nc1cccc(-n2c(=O)n(C3CC3)c(=O)c3c(Nc4ccc(I)cc4F)n(C)c(=O)c(C)c32)c1 [Trametinib] + Cc1nc(-c2cn3c(n2)-c2ccc(-c4cnn(C(C)(C)C(N)=O)c4)cc2OCC3)n(C(C)C)n1 [Taselisib] (first compound max 1 µM, 7x7, partner max 10 µM)	0.137	0.116	0.0114	0.107	-0.0123	0.0419	0.329	0.192	0.118	0.0427	0.0528	-0.0509	0.011	0.135	-0.0716	0.118	0.0563	0.234	0.06	0.0161
CC1(C)CCC(CN2CCN(c3ccc(C(=O)NS(=O)(=O)c4ccc(NCC5CCOCC5)c([N+](=O)[O-])c4)c(Oc4cnc5[nH]ccc5c4)c3)CC2)=C(c2ccc(Cl)cc2)C1 [Venetoclax] + Cn1cnc2c(F)c(Nc3ccc(Br)cc3Cl)c(C(=O)NOCCO)cc21 [Selumetinib] (first compound max 1 µM, 7x7, partner max 3 µM)	-0.0511	-0.0291	-0.0678	-0.0618	-0.0137	-0.06	0.0049	-0.0242	-0.0403	-0.0442	-0.0324	-0.0704	0.0918	-0.012	-0.0252	-0.0021	-0.0415	-0.0038	-0.0508	-0.049
Cc1cc2ncnn2cc1Nc1ncc2c(n1)n(C1CCOCC1)c(=O)n2C [AZD7648] + O=C(c1cc(Cc2n[nH]c(=O)c3ccccc23)ccc1F)N1CCN(C(=O)C2CC2)CC1 [Olaparib] (first compound max 10 µM, 7x7, partner max 10 µM)	-0.0277	-0.0301	-0.0526	-0.0277	-0.0467	0.0465	-0.0447	-0.0438	-0.0254	-0.0356	-0.0399	-0.013	0.0165	-0.0144	-0.0291	-0.0492	-0.0002	0.0443	-0.0571	0.0044
NC1(C(=O)N[C@@H](CCO)c2ccc(Cl)cc2)CCN(c2ncnc3[nH]ccc23)CC1 [Capivasertib] + CC(=O)c1c(C)c2cnc(Nc3ccc(N4CCNCC4)cn3)nc2n(C2CCCC2)c1=O [Palbociclib] (first compound max 10 µM, 7x7, partner max 10 µM)	-0.0207	-0.0617	-0.0235	-0.0405	-0.0127	0.0406	-0.0358	0.0004	-0.0457	-0.0238	-0.0727	-0.0214	0.0124	-0.0459	0.0291	-0.0038	-0.0061	-0.0151	-0.0194	0.0186
C[C@@H](c1ccc2nccn2c1)n1nnc2ncc(-c3cnn(C)c3)nc21 [Savolitinib] + CC1(C)CCC(CN2CCN(c3ccc(C(=O)NS(=O)(=O)c4ccc(NCC5CCOCC5)c([N+](=O)[O-])c4)c(Oc4cnc5[nH]ccc5c4)c3)CC2)=C(c2ccc(Cl)cc2)C1 [Venetoclax] (first compound max 1 µM, 7x7, partner max 1 µM)	0.0064	-0.0801	-0.0481	-0.0793	-0.0371	-0.0021	-0.0367	-0.0328	-0.0912	-0.0342	-0.0816	-0.111	-0.0158	-0.0848	-0.0221	-0.0427	-0.0719	-0.0402	-0.0368	-0.0432
Cn1cnc2c(F)c(Nc3ccc(Br)cc3Cl)c(C(=O)NOCCO)cc21 [Selumetinib] + CCN(CCO)CCCOc1ccc2c(Nc3cc(CC(=O)Nc4cccc(F)c4)[nH]n3)ncnc2c1 [AZD2811] (first compound max 10 µM, 7x7, partner max 1 µM)	-0.0278	-0.0096	0.0202	-0.0127	-0.0959	0.0193	0.0127	0.0722	-0.0526	-0.0518	0.0094	-0.0456	-0.0485	0.0258	0.0229	0.0328	-0.0583	0.111	0.0153	0.0191
CN(CCO)CC[C@H](CSc1ccccc1)Nc1ccc(S(=O)(=O)NC(=O)c2ccc(N3CCC([C@@H](O)c4ccccc4-c4ccc(Cl)cc4)CC3)cc2)cc1S(=O)(=O)C(F)(F)F [AZD4320] + CN(C)CCCOc1ccc(-c2ccc3ncc4c(c3c2)n(C2CCOCC2)c(=O)n4C)cn1 [AZD0156] (first compound max 1 µM, 7x7, partner max 1 µM)	-0.0242	0.0054	-0.0521	-0.0378	0.0044	-0.0183	-0.0242	-0.0423	-0.0429	-0.0408	-0.0683	-0.0824	-0.0565	-0.0378	-0.0333	0.0323	-0.0484	-0.002	-0.055	0.0046
CS(=O)(=O)CCNCc1ccc(-c2ccc3ncnc(Nc4ccc(OCc5cccc(F)c5)c(Cl)c4)c3c2)o1 [Lapatinib] + C[C@@H](Oc1cc(-c2cnn(C3CCNCC3)c2)cnc1N)c1c(Cl)ccc(F)c1Cl [Crizotinib] (first compound max 10 µM, 7x7, partner max 10 µM)	0.0028	0.0284	0	-0.0396	-0.0465	0.0033	-0.027	0.0015	-0.0563	-0.0055	-0.021	-0.0215	-0.0827	-0.0421	-0.0172	-0.0146	-0.0342	-0.0296	-0.0252	-0.0655
